Columns and labels:
[1] = target: T1, AuroraA-TPX2 (Homo sapiens, UniProt O14965); assay: AuroraA-TPX2 Homogeneous Time Resolved Fluorescent (HTRF) kinase assay; assay type: biochemical; details: average; read-out: AurA_IC50_IP (uM Avg)
T1 construct: 20 μL of AuroraA-TPX2 KD GST for a final volume of about 41 μL; GST
T1 sequence (O14965 133-383 limits assumed): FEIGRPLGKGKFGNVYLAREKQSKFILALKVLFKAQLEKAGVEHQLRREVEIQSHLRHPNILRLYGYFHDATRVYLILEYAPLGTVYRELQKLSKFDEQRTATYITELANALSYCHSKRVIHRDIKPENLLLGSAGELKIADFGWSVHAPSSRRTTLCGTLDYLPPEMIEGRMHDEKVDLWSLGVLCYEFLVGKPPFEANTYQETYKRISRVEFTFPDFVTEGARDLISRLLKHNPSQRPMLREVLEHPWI
T1 sequence (Q9ULW0 1-43 partner limits assumed): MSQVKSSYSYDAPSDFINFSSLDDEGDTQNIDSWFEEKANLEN
Outline: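 HTRF read-out (Eu 615 nm to APC 655 nm) of phosphorylated biotin-PLK, detected with 0.02 nM europium anti-phosphoPLK antibody and 0.0005 mg/mL SA-APC after overnight equilibration.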

[2] = target: T2, AuroraB (Homo sapiens, UniProt Q96GD4); assay: AuroraB Homogeneous Time Resolved Fluorescent (HTRF) kinase assay; assay type: biochemical; details: average; read-out: AurB_IC50_IP (uM Avg)
T2 construct: 20 μL of AuroraB FL H is for a final volume of 41 μL; His
Outline: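 Full-length His-tagged kinase phosphorylates biotinylated Histone H3 (0.1 μM final) with ATP in pH 7.5 HEPES containing MgCl, MnCl, DTT and BSA for about 90 min. EDTA-containing detection mix with SA-APC and Eu-anti-phosphoHistone H3 then equilibrated about 60 min; HTRF read with 320 nm excitation, emissions 615/655 nm.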

T2 sequence (Q96GD4 whole entry): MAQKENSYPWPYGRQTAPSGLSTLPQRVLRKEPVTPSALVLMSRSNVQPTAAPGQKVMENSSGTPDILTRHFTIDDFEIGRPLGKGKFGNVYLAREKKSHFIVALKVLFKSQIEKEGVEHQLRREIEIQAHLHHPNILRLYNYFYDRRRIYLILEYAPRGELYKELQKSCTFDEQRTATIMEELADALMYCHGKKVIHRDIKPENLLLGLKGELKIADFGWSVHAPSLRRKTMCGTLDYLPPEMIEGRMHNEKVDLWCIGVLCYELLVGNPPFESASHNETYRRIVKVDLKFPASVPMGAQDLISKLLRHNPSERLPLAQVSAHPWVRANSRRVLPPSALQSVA

SMILES	IC50 [1]	IC50 [2]
Clc1ccc(-c2nnc(Nc3ccc(Sc4ccnc5ccccc45)cc3)c3ccccc23)nc1 [compound 365, 4-(5-chloropyridin-2-yl)-N-(4-(quinolin-4-ylthio)phenyl)phthalazin-1-amine]	0.016 µM	0.011 µM
Cc1csc(-c2nnc(Nc3ccc(Sc4ccnc5ccsc45)cc3)c3ccccc23)c1 [compound 366, 4-(4-methylthiophen-2-yl)-N-(4-(thieno[3,2-b]pyridin-7-ylthio)phenyl)phthalazin-1-amine]	0.037 µM	0.051 µM
COc1cnc2c(Oc3ccc(Nc4nnc(-c5ccccc5)c5c4CCC5)cc3)ccnc2c1 [compound 367, N-(4-(7-methoxy-1,5-naphthyridin-4-yloxy)phenyl)-4-phenyl-6,7-dihydro-5H-cyclopenta[d]pyridazin-1-amine]	0.028 µM	0.057 µM
COc1ccc2c(Oc3ccc(Nc4nnc(-c5ccccc5)c5c4CCC5)cc3)ccnc2c1 [compound 368, N-(4-(7-methoxyquinolin-4-yloxy)phenyl)-4-phenyl-6,7-dihydro-5H-cyclopenta[d]pyridazin-1-amine]	0.04 µM	0.063 µM
c1ccc(-c2nnc(Nc3ccc(Oc4ccnc5ccnn45)cc3)c3ccccc23)cc1 [compound 370, 4-phenyl-N-(4-(pyrazolo[1,5-a]pyrimidin-7-yloxy)phenyl)phthalazin-1-amine]	0.505 µM	0.594 µM
COc1cnc2c(Oc3ccc(Nc4nnc(-c5ccc(Cl)cc5)c5c4CCC5)cc3)ccnc2c1 [compound 411]	> 25 µM	> 25 µM
COc1ccc2c(Oc3ccc(Nc4nnc(-c5ccc(Cl)cc5)c5c4CCC5)cc3)ccnc2c1 [compound 412]	> 25 µM	> 25 µM
COc1cnc2c(Sc3ccc(Nc4nnc(-c5ccccc5)c5ccccc45)cn3)ccnc2c1 [compound 413]	0.09 µM	0.031 µM
Oc1cnc2c(Sc3ccc(Nc4nnc(-c5ccccc5)c5ccccc45)cc3)ccnc2c1 [compound 415]	0.043 µM	0.012 µM
Cc1ccc(-c2nnc(Nc3ccc(Oc4ccnc5cccnc45)cc3)c3ccccc23)cc1N [compound 416]	0.098 µM	0.003 µM
c1ccc(-c2nnc(Nc3ccc(Oc4ccnc5cc(-c6cn[nH]c6)ccc45)cc3)c3ccccc23)cc1 [compound 417]	0.009 µM	0.002 µM
COc1cc2ncnc(Sc3ccc(Nc4nnc(-c5ccc(Cl)cc5)c5ccccc45)cc3)c2cc1OC [compound 418]	0.028 µM	0.012 µM
COc1ccc2nccc(Sc3ccc(Nc4nnc(-c5cccc(C)n5)c5ccccc45)cc3)c2n1 [compound 419]	0.309 µM	0.026 µM
COc1cnc2c(Sc3ccc(Nc4nnc(-c5cccc(C)n5)c5ccccc45)cc3)ccnc2c1 [compound 420]	0.072 µM	0.015 µM
Cc1cccc(-c2nnc(Nc3ccc(Sc4ccnc5cccnc45)cc3)c3ccccc23)n1 [compound 421]	0.142 µM	0.008 µM
COc1cc2c(Oc3ccc(Nc4nnc(-c5ccccc5)c5ccccc45)cc3)ccnc2cc1O [compound 422]	0.029 µM	0.013 µM
Clc1ccc(-c2nnc(Nc3ccc(Oc4ccnc5ccncc45)cc3)c3ccccc23)cc1 [compound 423]	0.047 µM	0.003 µM
c1ccc2c(-c3ccc4c(c3)OCO4)nnc(Nc3ccc(Oc4ccnc5ccncc45)cc3)c2c1 [compound 424]	0.055 µM	0.004 µM
c1ccc(-c2nnc(Nc3ccc(Sc4ccnc5ccncc45)cc3)c3ccccc23)cc1 [compound 425]	0.171 µM	0.003 µM
Clc1ccc(-c2nnc(Nc3ccc(Sc4ccnc5ccncc45)cc3)c3ccccc23)cc1 [compound 426]	0.1 µM	0.008 µM
c1ccc2c(-c3ccc4c(c3)OCO4)nnc(Nc3ccc(Sc4ccnc5ccncc45)cc3)c2c1 [compound 427]	0.055 µM	0.007 µM
Cc1csc(-c2nnc(Nc3ccc(Sc4ccnc5ccncc45)cc3)c3ccccc23)c1 [compound 428]	0.032 µM	0.013 µM
Cc1csc(-c2nnc(Nc3ccc(Oc4ccnc5ccncc45)cc3)c3ccccc23)c1 [compound 429]	0.046 µM	0.012 µM
Clc1ccc(-c2nnc(Nc3ccc(Sc4ccnc5ccncc45)cc3)c3ccccc23)nc1 [compound 430]	0.084 µM	0.007 µM
COCCOc1ccc2c(Sc3ccc(Nc4nnc(-c5ccc(Cl)cc5)c5ccccc45)cc3)ccnc2c1 [compound 431]	0.012 µM	0.018 µM
Cc1ccc(-c2nnc(Nc3ccc(Oc4ccnc5ccncc45)cc3)c3ccccc23)nc1 [compound 432]	0.122 µM	0.012 µM
Cc1ccc(-c2nnc(Nc3ccc(Sc4ccnc5ccncc45)cc3)c3ccccc23)nc1 [compound 433]	0.056 µM	0.004 µM

SMILES	IC50 [1]	IC50 [2]
COCCOc1ccc2nccc(Sc3ccc(Nc4nnc(-c5ccc(Cl)cc5)c5ccccc45)cc3)c2c1 [compound 434]	0.109 µM	0.109 µM
COc1cc(OC)c2c(Oc3ccc(Nc4nnc(-c5ccc(Cl)cc5)c5ccccc45)cc3)ccnc2c1 [compound 435]	0.038 µM	0.121 µM
COc1cc(OC)c2c(Sc3ccc(Nc4nnc(-c5ccc(Cl)cc5)c5ccccc45)cc3)ccnc2c1 [compound 436]	0.401 µM	0.675 µM
COc1cc(F)cc2nccc(Oc3ccc(Nc4nnc(-c5ccc(Cl)cc5)c5ccccc45)cc3)c12 [compound 437]	0.042 µM	0.035 µM
COc1cc(F)cc2nccc(Sc3ccc(Nc4nnc(-c5ccc(Cl)cc5)c5ccccc45)cc3)c12 [compound 438]	0.112 µM	0.051 µM
COc1cc(OC)c2c(Sc3ccc(Nc4nnc(-c5cc(C)cs5)c5ccccc45)cc3)ccnc2c1 [compound 439]	1.66 µM	3.2 µM
COc1cc(F)cc2nccc(Sc3ccc(Nc4nnc(-c5cc(C)cs5)c5ccccc45)cc3)c12 [compound 440]	0.585 µM	0.596 µM
COc1cc(OC)c2c(Oc3ccc(Nc4nnc(-c5cc(C)cs5)c5ccccc45)cc3)ccnc2c1 [compound 441]	0.456 µM	0.135 µM
COc1cc(F)cc2nccc(Oc3ccc(Nc4nnc(-c5cc(C)cs5)c5ccccc45)cc3)c12 [compound 442]	0.157 µM	0.017 µM
c1cnc2c(Sc3ccc(Nc4nnc(-c5ccc6c(c5)OCO6)c5ccccc45)cc3)ccnc2c1 [compound 443]	0.012 µM	0.002 µM
FC1(F)Oc2ccc(-c3nnc(Nc4ccc(Sc5ccnc6cccnc56)cc4)c4ccccc34)cc2O1 [compound 444]	0.128 µM	0.022 µM
c1cnc2c(Sc3ccc(Nc4nnc(-c5ccc6c(c5)CCO6)c5ccccc45)cc3)ccnc2c1 [compound 445]	0.03 µM	0.013 µM
c1cnc2c(Sc3ccc(Nc4nnc(-c5ccc6occc6c5)c5ccccc45)cc3)ccnc2c1 [compound 446]	0.035 µM	0.011 µM
Cc1csc(-c2nnc(Nc3ccc(Oc4ccnc5cccnc45)cc3)c3ccccc23)c1 [compound 447]	0.027 µM	0.013 µM
Clc1ccc(-c2nnc(Nc3ccc(Oc4ccnc5cccnc45)cc3)c3ccccc23)cc1 [compound 448]	0.039 µM	0.011 µM
COc1cnc2c(Oc3ccc(Nc4nnc(-c5ccc(C)c(O)c5)c5ccccc45)cc3)ccnc2c1 [compound 449]	0.026 µM	0.006 µM
COCCOc1cc(-c2nnc(Nc3ccc(Sc4ccnc5cc(OC)cnc45)cc3)c3ccccc23)ccc1Cl [compound 450]	0.101 µM	0.054 µM
COc1cnc2c(Sc3ccc(Nc4nnc(-c5ccc(C)c(O)c5)c5ccccc45)cc3)ccnc2c1 [compound 451]	0.078 µM	0.033 µM
Oc1cc(-c2nnc(Nc3ccc(Sc4ccnc5cccnc45)cc3)c3ccccc23)ccc1Cl [compound 452]	0.058 µM	0.003 µM
COc1cnc2c(Sc3ccc(Nc4nnc(-c5ccc6cn[nH]c6c5)c5ccccc45)cc3)ccnc2c1 [compound 453]	0.028 µM	0.032 µM
COc1cnc2c(Oc3c(F)cc(Nc4nnc(-c5ccc(Cl)cc5)c5ccccc45)cc3F)ccnc2c1 [compound 454]	0.05 µM	0.01 µM
Fc1ccc2c(Oc3ccc(Nc4nnc(-c5ccc(Cl)cc5)c5ccccc45)cc3)ccnc2c1 [compound 455]	> 125 µM	0.013 µM
COc1cnnc(Nc2ccc(Oc3ccnc4cc(OC)cnc34)cc2)c1 [compound 456]	1 µM	0.058 µM
N#Cc1cc2nccc(Sc3ccc(Nc4nnc(-c5ccc6c(c5)OCO6)c5ccccc45)cc3)c2s1 [compound 457]	0.062 µM	0.015 µM
N#Cc1cc2nccc(Sc3ccc(Nc4nnc(-c5ccccc5)c5ccccc45)cc3)c2s1 [compound 458]	> 25 µM	0.097 µM
Cc1csc(-c2nnc(Nc3ccc(Sc4ccnc5cc(C#N)sc45)cc3)c3ccccc23)c1 [compound 459]	0.21 µM	0.15 µM

Reference: patent US8557816B2, “Aurora kinase modulators and method of use” (Amgen Inc., priority 2007, dated 2013)
